In patent US5643877A, “Compounds comprising gonadotropin releasing hormone (GnRH) and methods for controlling reproduction in fish” (University of Maryland Biotechnology Institute, priority 1994, dated 1997):
Entries after “also recorded” stand apart in the source; their conditions may differ. Square brackets hold non-standard residues; d marks the D form. Peptide text beside a SMILES is read from it. pGlu = O=C1CC[C@@H](C(=O)O)N1

System: GtH-II secretion in female gilthead seabream
Assay: In vivo gonadotropin-releasing potency: plasma GtH-II by homologous radioimmunoassay after intramuscular injection of GnRH peptides
Design: species or system Sparus aurata
Conditions: for gonadotropin (GtH-II) secretion of sbGnRH, its analogs and the mGnRH analog compared (in words) / blood GtH-II levels, times higher than in sbGnRH-injected females: third experiment; for gonadotropin (GtH-II) secretion of sbGnRH, its analogs and the mGnRH analog compared (in words): 5 μg/kg body weight, 1.5, 4 and 8 hours post-injection; for GtH-II levels, times higher than in saline-injected fish: 25 μg/kg body weight; for stimulation of GtH-II secretion (in words): reproductively mature seabream females, native peptides injected at 5 and 25 μg/kg body weight
Procedure: During the spawning season, 104 female seabream at 2 years of age, weighing 458±104 g, with preovulatory oocytes of 500-600 μm in diameter were selected for experimentation. Oocyte developmental stage was determined by microscopic examination of a freshly removed ovarian biopsy, as previously described (Zohar et al., 1979, J. Fish Biol. 15:665-670). The bioactivity of the native forms of GnRH and of the GnRH analogs was studied in three consecutive experiments, carried out on day 1, day 3, and day 8. The first experiment included four groups of eight females. Three groups were injected with 5 μg/kg body weight of either sbGnRH, sGnRH or cGnRH-II. The fourth group was injected with saline. The second experiment included four similar groups, except that the peptides were injected at a dose of 25 μg/kg body weight. The third experiment included five groups, each with eight females. One group was injected with native sbGnRH; two other groups were each injected with an analog of sbGnRH, the [D-Ala^6,Pro^9 -NEt]-sbGnRH and [D-Arg^6,Pro^9 -NEt]-sbGnRH; another group was injected with the analog of the mammalian GnRH, [D-Ala^6,Pro^9 -NEt]-mGnRH; and the last group was injected with saline. All peptides in the third experiment were injected at a dose of 5 μg/kg body weight.
In all experiments, the tested peptides were injected into the dorsal musculature, in a volume of 0.5 ml/kg body weight. Each group of fish was held in a separate 600 liter tank exposed to natural photoperiod conditions and supplied with sea water at 20° C. Fish were bled before the injection of the peptides and at 1.5, 4 and 8 hours post-injection. At each bleeding time, 1 ml of blood was removed from the caudal vessels, using a 1 ml syringe fit with a 21G needle. Prior to injection and bleeding, fish were anesthetized in 0.2 ppt of 2-phenoxy-ethanol. Blood was immediately centrifuged and plasma removed and frozen. Levels of seabream GtH-II in the plasma samples were measured using a homologous and specific radioimmunoassay, as previously described (Zohar et al., 1990, Aquaculture 88:189-204). Blood GtH-II levels in the various groups were statistically compared using ANOVA followed by Duncan new multiple range comparison test.

[1] = 5 μg/kg body weight, 1.5 hours post-injection
[2] = 5 μg/kg body weight, 4 hours after injection
[3] = 5 μg/kg dose, 1.5 hr after injection
[4] = 25 μg/kg body weight, 1.5, 4 and 8 hours post-injection
[5] = 25 μg/kg dose, 1.5 hr after injection
[6] = native GnRH forms, 5 and 25 μg/kg body weight

| Structure (SMILES) | gonadotropin (GtH-II) secretion of sbGnRH, its analogs and the mGnRH analog compared (in words) | blood GtH-II levels, times higher than in sbGnRH-injected females (5 μg/kg body weight, 1.5 hr) [times] | blood GtH-II levels, times higher than in sbGnRH-injected females (5 μg/kg body weight, 8 hr) [times] | blood GtH-II levels, times higher than in control females [1] | blood GtH-II levels, times higher than in control females [2] | blood GtH-II levels versus control females (5 μg/kg body weight, 8 hours post-injection) | potency in inducing GtH-II secretion, times more potent than sGnRH [3] [times] | potency in inducing GtH-II secretion, times more potent than sbGnRH [3] [times] | GtH-II-releasing potency of the native peptides compared (in words) [4] | GtH-II levels, times higher than in saline-injected fish (1.5 hr after injection) [times] | GtH-II levels, times higher than in saline-injected fish (4 hr after injection) [times] | GtH-II levels, times higher than in saline-injected fish (8 hr after injection) [times] | potency in inducing GtH-II secretion, times more potent than sGnRH [5] [times] | potency in inducing GtH-II secretion, times more potent than sbGnRH [5] [times] | GtH-II-releasing potency of the native peptides compared (in words) [6] | stimulation of GtH-II secretion (in words) |
| --- | --- | --- | --- | --- | --- | --- | --- | --- | --- | --- | --- | --- | --- | --- | --- | --- |
| CCNC(=O)[C@@H]1CCCN1C(=O)[C@H](CO)NC(=O)[C@H](CC(C)C)NC(=O)[C@@H](C)NC(=O)[C@H](Cc1ccc(O)cc1)NC(=O)[C@H](CO)NC(=O)[C@H](Cc1c[nH]c2ccccc12)NC(=O)[C@H](Cc1c[nH]cn1)NC(=O)[C@@H]1CCC(=O)N1 [[D-Ala^6,Pro^9-.NEt]-sbGnRH, [D-Ala^6,Pro^9 -NEt]-sbGnRH] ([pGlu]HWSY[dA]LSP-NHEt) | significantly stronger gonadotropin secretion than did the native sbGnRH; also recorded: equipotent; also recorded: much less potent; also recorded: in the same range as those induced by the native sGnRH and cGnRH-II | 5 | 2.5 | – | – | – | – | – | – | – | – | – | – | – | – | – |
| CCNC(=O)[C@@H]1CCCN1C(=O)[C@H](CO)NC(=O)[C@H](CC(C)C)NC(=O)[C@@H](CCCNC(=N)N)NC(=O)[C@H](Cc1ccc(O)cc1)NC(=O)[C@H](CO)NC(=O)[C@H](Cc1c[nH]c2ccccc12)NC(=O)[C@H](Cc1c[nH]cn1)NC(=O)[C@@H]1CCC(=O)N1 [[D-Arg^6, Pro^9 -NEt]-sbGnRH] ([pGlu]HWSY[dR]LSP-NHEt) | – | 5 | 2.5 | – | – | – | – | – | – | – | – | – | – | – | – | – |
| NC(=O)CNC(=O)[C@@H]1CCCN1C(=O)[C@H](Cc1ccc(O)cc1)NC(=O)[C@H](Cc1c[nH]c2ccccc12)NC(=O)CNC(=O)[C@H](Cc1c[nH]cn1)NC(=O)[C@H](CO)NC(=O)[C@H](Cc1c[nH]c2ccccc12)NC(=O)[C@H](Cc1c[nH]cn1)NC(=O)[C@@H]1CCC(=O)N1 [cGnRH-II, pGlu-His-Trp-Ser -His-Gly-Trp-Tyr-Pro-Gly-NH2, reference compound] ([pGlu]HWSHGWYPG-NH2) | – | – | – | 14.50 times | 6.2 times | higher GtH-II levels | 1.75 | 8 | cGnRH-II>sGnRH>sbGnRH; also recorded: induced higher GtH-II secretion than did sGnRH or sbGnRH | 31.0 | 10.9 | 5.5 | 2 | 7 | significantly more potent than the novel sbGnRH | significantly stimulate GtH-II secretion |
| CC(C)C[C@H](NC(=O)CNC(=O)[C@H](Cc1ccc(O)cc1)NC(=O)[C@H](CO)NC(=O)[C@H](Cc1c[nH]c2ccccc12)NC(=O)[C@H](Cc1c[nH]cn1)NC(=O)[C@@H]1CCC(=O)N1)C(=O)N[C@@H](CO)C(=O)N1CCC[C@H]1C(=O)NCC(N)=O [sbGnRH, pGlu-His-Trp-Ser-Tyr-Gly-Leu-Ser-Pro-Gly-NH 2] | did not induce significant release of GtH-II | – | – | tended to be higher than in the control females | not different from control levels | – | – | – | cGnRH-II>sGnRH>sbGnRH | 4.4 | – | – | – | – | less active than cGnRH-II and sGnRH | significantly stimulate GtH-II secretion |
